{"source": "PubChem BioAssay AID328", "about": "(DTP/NCI, 2004)", "system": "BDF1 mice, P388 leukemia ip, median survival T/C", "assay": "NCI In Vivo Anticancer Drug Screen. Data for tumor model P388 Leukemia (intraperitoneal) in B6D2F1 (BDF1) mice", "settings": "endpoint: median survival time, higher = longer survival", "procedure,_shortened": "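Vehicle-dosed animals serve as the reference; survival of compound-dosed, tumour-implanted mice is divided by it.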", "key": {"[1]": {"settings": "dose: 12.5 mg/kg/injection, schedule: Q01DX009 (ip), vehicle: saline with Tween-80"}, "[2]": {"settings": "dose: 25.0 mg/kg/injection, schedule: Q01DX009 (ip), vehicle: saline with Tween-80"}, "[3]": {"settings": "dose: 50.0 mg/kg/injection, schedule: Q01DX009 (ip), vehicle: saline with Tween-80"}, "[4]": {"settings": "dose: 100.0 mg/kg/injection, schedule: Q01DX009 (ip), vehicle: saline with Tween-80"}, "[5]": {"settings": "dose: 100.0 mg/kg/injection, schedule: Q01DX009 (ip), vehicle: saline"}, "[6]": {"settings": "dose: 200.0 mg/kg/injection, schedule: Q01DX009 (ip), vehicle: saline"}}, "note": "“And” between values parts separate entries of the source, which are not always exact repeats. Equal values may be shown once. Inconclusive results and toxic doses are left out.", "data": [{"compound": "Clc1[nH]nc2ccccc12", "values": [{"measurement": "T/C", "setting": "[1]", "value": "91 % of control"}, {"measurement": "T/C", "setting": "[2]", "value": "87 % of control"}, {"measurement": "T/C", "setting": "[3]", "value": "95 % of control"}, {"measurement": "T/C", "setting": "dose: 50.0 mg/kg/injection, schedule: Q04DX003 (ip), vehicle: saline sonified", "value": "90 % of control"}, {"measurement": "T/C", "setting": "[4]", "value": "100 % of control"}, {"measurement": "T/C", "setting": "dose: 100.0 mg/kg/injection, schedule: Q04DX003 (ip), vehicle: saline sonified", "value": "90 % of control"}, {"measurement": "T/C", "setting": "dose: 200.0 mg/kg/injection, schedule: Q04DX003 (ip), vehicle: saline sonified", "value": "90 % of control"}]}, {"compound": "NC(=O)c1nc(-c2ccccc2)c(-c2ccccc2)[nH]c1=O", "values": [{"measurement": "T/C", "setting": "[3]", "value": "109 % of control"}, {"measurement": "T/C", "setting": "[4]", "value": "117 % of control"}, {"measurement": "T/C", "setting": "dose: 100.0 mg/kg/injection, schedule: Q04DX003 (ip), vehicle: saline with Tween-80", "value": "106 % of control"}, {"measurement": "T/C", "setting": "dose: 200.0 mg/kg/injection, schedule: Q01DX009 (ip), vehicle: saline with Tween-80", "value": "99 % of control"}, {"measurement": "T/C", "setting": "dose: 200.0 mg/kg/injection, schedule: Q04DX003 (ip), vehicle: saline with Tween-80", "value": "102 % of control"}, {"measurement": "T/C", "setting": "dose: 400.0 mg/kg/injection, schedule: Q04DX003 (ip), vehicle: saline with Tween-80", "value": "116 % of control"}]}, {"compound": "CC(=O)O[C@]1(C(C)=O)CC[C@H]2[C@@H]3C[C@H](C)C4=CC(=O)CC[C@]4(C)[C@H]3CC[C@@]21C", "values": [{"measurement": "T/C", "setting": "dose: 50.0 mg/kg/injection, schedule: Q01DX009 (ip), vehicle: Klucel (hydroxypropylcellulose) (HPC)", "value": "103 % of control"}, {"measurement": "T/C", "setting": "dose: 100.0 mg/kg/injection, schedule: Q01DX009 (ip), vehicle: Klucel (hydroxypropylcellulose) (HPC)", "value": "111 % of control"}, {"measurement": "T/C", "setting": "dose: 100.0 mg/kg/injection, schedule: Q04DX003 (ip), vehicle: other", "value": "110 % of control"}, {"measurement": "T/C", "setting": "dose: 200.0 mg/kg/injection, schedule: Q01DX009 (ip), vehicle: Klucel (hydroxypropylcellulose) (HPC)", "value": "94 % of control and 95 % of control"}, {"measurement": "T/C", "setting": "dose: 200.0 mg/kg/injection, schedule: Q04DX003 (ip), vehicle: other", "value": "100 % of control"}, {"measurement": "T/C", "setting": "dose: 400.0 mg/kg/injection, schedule: Q01DX009 (ip), vehicle: Klucel (hydroxypropylcellulose) (HPC)", "value": "87 % of control"}, {"measurement": "T/C", "setting": "dose: 400.0 mg/kg/injection, schedule: Q04DX003 (ip), vehicle: other", "value": "115 % of control"}]}, {"compound": "Cc1cc(C)c(OC(=O)CNC(=O)C(C)NC(=O)OC(C)(C)C)c(C)c1", "note": "(configuration not stated)", "values": [{"measurement": "T/C", "setting": "dose: 50.0 mg/kg/injection, schedule: Q01DX005 (ip), vehicle: Klucel (hydroxypropylcellulose) (HPC)", "value": "91 % of control"}, {"measurement": "T/C", "setting": "dose: 100.0 mg/kg/injection, schedule: Q01DX005 (ip), vehicle: Klucel (hydroxypropylcellulose) (HPC)", "value": "97 % of control"}, {"measurement": "T/C", "setting": "dose: 200.0 mg/kg/injection, schedule: Q01DX005 (ip), vehicle: Klucel (hydroxypropylcellulose) (HPC)", "value": "91 % of control"}]}, {"compound": "O=S(=O)(CBr)OCCCl", "values": [{"measurement": "T/C", "setting": "dose: 50.0 mg/kg/injection, schedule: Q01DX005 (ip), vehicle: saline with Tween-80", "value": "120 % of control"}, {"measurement": "T/C", "setting": "dose: 100.0 mg/kg/injection, schedule: Q01DX005 (ip), vehicle: saline with Tween-80", "value": "121 % of control"}, {"measurement": "T/C", "setting": "dose: 200.0 mg/kg/injection, schedule: Q01DX005 (ip), vehicle: saline with Tween-80", "value": "165 % of control"}]}, {"compound": "CC(O)C(N)C(=O)NCCc1nc(-c2nc(C(=O)NCCCBr)cs2)cs1", "note": "(configuration not stated)", "values": [{"measurement": "T/C", "setting": "dose: 50.0 mg/kg/injection, schedule: Q01DX009 (ip), vehicle: saline", "value": "106 % of control"}, {"measurement": "T/C", "setting": "[5]", "value": "94 % of control"}, {"measurement": "T/C", "setting": "[6]", "value": "103 % of control"}]}, {"compound": "NCCCCNC(=O)c1csc(-c2csc(CCNC(=O)c3ccccc3)n2)n1", "values": [{"measurement": "T/C", "setting": "dose: 8.0 mg/kg/injection, schedule: Q01DX009 (ip), vehicle: saline", "value": "100 % of control"}, {"measurement": "T/C", "setting": "dose: 16.0 mg/kg/injection, schedule: Q01DX009 (ip), vehicle: saline", "value": "100 % of control"}, {"measurement": "T/C", "setting": "dose: 32.0 mg/kg/injection, schedule: Q01DX009 (ip), vehicle: saline", "value": "100 % of control"}, {"measurement": "T/C", "setting": "dose: 64.0 mg/kg/injection, schedule: Q01DX009 (ip), vehicle: saline", "value": "110 % of control"}]}, {"compound": "O=C(C[n+]1ccc2ccccc2c1)c1ccccc1", "values": [{"measurement": "T/C", "setting": "dose: 12.5 mg/kg/injection, schedule: Q04DX003 (ip), vehicle: saline with Tween-80", "value": "100 % of control"}, {"measurement": "T/C", "setting": "dose: 25.0 mg/kg/injection, schedule: Q04DX003 (ip), vehicle: saline with Tween-80", "value": "100 % of control"}, {"measurement": "T/C", "setting": "dose: 50.0 mg/kg/injection, schedule: Q04DX003 (ip), vehicle: saline with Tween-80", "value": "100 % of control"}]}, {"compound": "CC1(C)CC1(Br)Br", "values": [{"measurement": "T/C", "setting": "[1]", "value": "100 % of control"}, {"measurement": "T/C", "setting": "[2]", "value": "106 % of control"}, {"measurement": "T/C", "setting": "[4]", "value": "98 % of control and 100 % of control"}]}, {"compound": "COC(=O)C(C)C(=O)OC", "values": [{"measurement": "T/C", "setting": "dose: 100.0 mg/kg/injection, schedule: Q01DX001 (ip), vehicle: saline", "value": "100 % of control"}, {"measurement": "T/C", "setting": "[5]", "value": "90 % of control"}, {"measurement": "T/C", "setting": "dose: 200.0 mg/kg/injection, schedule: Q01DX001 (ip), vehicle: saline", "value": "100 % of control"}, {"measurement": "T/C", "setting": "[6]", "value": "100 % of control"}, {"measurement": "T/C", "setting": "dose: 400.0 mg/kg/injection, schedule: Q01DX001 (ip), vehicle: saline", "value": "113 % of control"}, {"measurement": "T/C", "setting": "dose: 400.0 mg/kg/injection, schedule: Q01DX009 (ip), vehicle: saline", "value": "109 % of control"}]}, {"compound": "C[S+](C)N(c1ccc(Cl)cc1)C(C)(C)C", "values": [{"measurement": "T/C", "setting": "dose: 25.0 mg/kg/injection, schedule: Q01DX001 (ip), vehicle: saline", "value": "104 % of control"}, {"measurement": "T/C", "setting": "dose: 50.0 mg/kg/injection, schedule: Q01DX001 (ip), vehicle: saline", "value": "111 % of control"}]}, {"compound": "NC1=C(N2CC2)C(=O)C(N)=C(N2CC2)C1=O", "values": [{"measurement": "T/C", "setting": "dose: 100.0 micrograms/kg/injection, schedule: Q01DX009 (ip), vehicle: saline", "value": "178 % of control"}]}, {"compound": "CCCCN(CCCC)CC(O)c1ccnc2cc3c(cc12)OCO3", "note": "(configuration not stated)", "values": [{"measurement": "T/C", "setting": "dose: 25.0 mg/kg/injection, schedule: Q01DX001 (ip), vehicle: Klucel (hydroxypropylcellulose) (HPC)", "value": "104 % of control"}, {"measurement": "T/C", "setting": "dose: 50.0 mg/kg/injection, schedule: Q01DX001 (ip), vehicle: Klucel (hydroxypropylcellulose) (HPC)", "value": "104 % of control"}, {"measurement": "T/C", "setting": "dose: 100.0 mg/kg/injection, schedule: Q01DX001 (ip), vehicle: Klucel (hydroxypropylcellulose) (HPC)", "value": "100 % of control"}, {"measurement": "T/C", "setting": "dose: 100.0 mg/kg/injection, schedule: Q01DX001 (ip), vehicle: saline with Tween-80", "value": "100 % of control"}]}]}
